US10617715B2, “Methods of treating or preventing biofilm associated infections with free available chlorine free available chlorine water” (Sonoma Pharmaceuticals, Inc., priority 2008, dated 2020)
Positions of bridges follow the written chain, without caps; N, C: chain ends. Non-standard residues stand in square brackets, D forms with d. Residues, ends and D or L forms follow the SMILES beside them. *: point of attachment. Ileψ(thiazoline)Cys = CC[C@H](C)[C@H](N)C1=N[C@H](C(=O)*)CS1; dOrn = NCCC[C@@H](N)C(=O)O

Test system: exponential phase P. aeruginosa
Assay: Susceptibility testing of exponential phase planktonic P. aeruginosa cells (suspension kill)
Assay type: cell-based, Pseudomonas aeruginosa
Conditions: bacitracin 33 U/ml, 20 sec.-20 min.

Q: For `CC[C@H](C)[C@H](N)C1=N[C@H](C(=O)N[C@@H](CC(C)C)C(=O)N[C@H](CCC(=O)O)C(=O)N[C@H](C(=O)N[C@H]2CCCCNC(=O)[C@H](CC(N)=O)NC(=O)[C@@H](CC(=O)O)NC(=O)[C@H](Cc3cnc[nH]3)NC(=O)[C@@H](Cc3ccccc3)NC(=O)[C@H]([C@@H](C)CC)NC(=O)[C@@H](CCCN)NC2=O)[C@@H](C)CC)CS1` [bacitracin] ({Ileψ(thiazoline)Cys}-L[dE]IK[dOrn]I[dF]H[dD]N; lactam 4-C), which reduction of viability is on record?
A: The reduction of viability was “ineffective and did not result in reduction of viability”.
